# Test results published in US4952605A (priority 1988, dated 1990).
# What was measured:
# [1] = system: PMA-induced ear edema (inflammation) in mice; assay: Mouse ear anti-inflammatory assay (PMA-induced edema); assay type: in vivo; conditions: for relative increase in ear weight: statistically significant difference
# Method: Test compound and phorbol myristate acetate (PMA) are topically applied simultaneously to the pinnae of the left ears of mice. PMA alone is applied to the right ear. Three hours and 20 minutes after application, the mice are sacrificed, left and right ears removed, and standard sized bores taken. Edema (inflammation) is measured as the difference in weight between left and right ears (C. G. Van Arman, Clin Pharmacol Ther (1974) 16:900-904).
# The results of separate, similar experiments are set forth below (*=statistically significant difference).
# In another separate experiment, the effect of dehydro-seco-manoalide was determined (PMA=15 μg/ear).
# In separate, similar experiments, where […] was at 1.5 ug/ear, luffariellin A and B (50 ug/ear) gave statistically significant differences in relative increase in ear weight (0.308±0.065 and 0.262±0.053, respectively) as compared to PNA alone (0.618± 0.113); as did 50 ug luffariellolide (0.221±0.068) as compared to PMA alone (0.929±0.200).
# [2] = biological target: bee venom phospholipase A2 (PLA2) (Apis mellifera, UniProt P00630); assay: biochemical; conditions: for inhibition at 0.75 µM: pH 7.4, read-out: Percent Inhibition of PLA2; for inhibition at 0.25 µM / inhibition at 0.5 µM / inhibition at 2 µM / inhibition at 4 µM: pH 7.4, read-out: Percent Inhibition of PLA2; for inhibition at 0.5 µM: 0.50 uM
# bee venom PLA2 = bee venom PLA2 (Apis mellifera, UniProt P00630); assay: biochemical; conditions: pH 7.4
# [3] = system: Chinese hamster ovary K1 cells; assay: Effect on CHO cell growth; assay type: cell-based; conditions: Cricetulus griseus
# Method: Chinese hamster ovary K1 cells are maintained in Dulbecco's Modified Eagle's Medium at 36° C. with 95% air and 5% CO2. Cells are transferred into 35 mm culture dishes, allowed 24 hours to adhere, then exposed to medium containing drug for the duration of the experiment. The number of adhered cells is counted at 24, 48, and 72 hours after initial exposure to drug.
# [4] = dose 25.0 ug/ear topical, PMA 1.5 ug/ear, untreated 9.3 mg, PMA alone 23 mg, *=statistically significant
# [5] = dose 50.0 ug/ear topical, PMA 1.5 ug/ear, untreated 9.3 mg, PMA alone 23 mg, *=statistically significant
# [6] = 50 ug/ear, PNA [sic] 1.5 ug/ear, PNA alone 0.618±0.113
# Chain of bee venom phospholipase A2 (PLA2) (P00630 34-167 limits assumed): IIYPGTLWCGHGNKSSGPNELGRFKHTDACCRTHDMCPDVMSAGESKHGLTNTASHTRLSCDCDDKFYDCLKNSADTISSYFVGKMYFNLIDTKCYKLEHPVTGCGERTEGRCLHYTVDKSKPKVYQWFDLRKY
# Chain of bee venom PLA2 (P00630 34-167 limits assumed): as above
smiles,measurement,setting,value
CC(=CCCC(C=O)=CC=CC1=CC(=O)OC1O)CCC1=C(C)CCCC1(C)C (stereo not shown) [Dehydro-seco-manoalide],relative potency of dehydro-seco-manoalide to manoalide,"[1]; from dose/response data, relative to manoalide",1.32
same,Average Ear Weight,"[1]; separate experiment, dose 50 ug/ear, PMA=15 μg/ear, no agent 24.60 mg/ear",14.30 mg/ear
same,inhibition at 0.75 µM,[2],51.3%
same,inhibition at 0.25 µM,[2],30.3%
same,inhibition at 0.5 µM,[2],61.8%
same,inhibition at 2 µM,[2],72.4%
same,inhibition at 4 µM,[2],87.3%
"CC(=CCCC(=CCC(O)C1=CC(=O)OC1)CO)CCC1=C(C)CCCC1(C)C (stereo not shown) [Manoalide Diol, 3,7-Bis(hydroxymethyl)-4-hydroxy-11-methyl-13-(2,6,6-trimethylcyclohexenyl)-2,6,10-tridecatrienoic acid gamma-lactone]",Average Ear Weight,[1]; [4],14.54 mg/ear
same,Average Ear Weight,[1]; [5],13.17 mg/ear
"CC(=O)OC1OC(=O)C=C1C1CC=C(CCC=C(C)CCC2=C(C)CCCC2(C)C)C(=O)O1 (stereo not shown) [Manoalide delta Lactone Acetate, manoalide delta-lactone acetate]",Average Ear Weight,[1]; [4],16.64 mg/ear
same,Average Ear Weight,[1]; [5],13.34 mg/ear
"CC(=CCCC1=CCC(C2=CC(=O)OC2O)OC1=O)CCC1=C(C)CCCC1(C)C (stereo not shown) [Manoalide delta Lactone, manoalide delta-lactone]",Average Ear Weight,[1]; [4],16.28 mg/ear
same,Average Ear Weight,[1]; [5],14.87 mg/ear
"CC(=CCCC1=CCC(C2=CC(=O)OC2O)OC1O)CCC1=C(C)CCCC1(C)C (stereo not shown) [Manoalide, reference compound]",Average Ear Weight,"[1]; dose 7.5 ug/ear topical, PMA 1.5 ug/ear, untreated 9.3 mg, PMA alone 23 mg, *=statistically significant",20.45 mg/ear
same,Average Ear Weight,"[1]; dose 10.0 ug/ear topical, PMA 1.5 ug/ear, untreated 9.3 mg, PMA alone 23 mg, *=statistically significant",19.75 mg/ear
same,Average Ear Weight,"[1]; dose 20.0 ug/ear topical, PMA 1.5 ug/ear, untreated 9.3 mg, PMA alone 23 mg, *=statistically significant",17.00 mg/ear
same,Average Ear Weight,"[1]; dose 40.0 ug/ear topical, PMA 1.5 ug/ear, untreated 9.3 mg, PMA alone 23 mg, *=statistically significant",16.80 mg/ear
same,Average Ear Weight,"[1]; dose 80.0 ug/ear topical, PMA 1.5 ug/ear, untreated 9.3 mg, PMA alone 23 mg, *=statistically significant",12.90 mg/ear
same,Average Ear Weight,"[1]; dose 160.0 ug/ear topical, PMA 1.5 ug/ear, untreated 9.3 mg, PMA alone 23 mg, *=statistically significant",12.60 mg/ear
same,Average Ear Weight,"[1]; dose 320.0 ug/ear topical, PMA 1.5 ug/ear, untreated 9.3 mg, PMA alone 23 mg, *=statistically significant",11.20 mg/ear
same,inhibition at 0.75 µM,[2],73.5%
same,inhibition at 0.25 µM,[2],20.7%
same,inhibition at 0.5 µM,[2],48%
same,inhibition at 2 µM,[2],92.8%
same,inhibition at 4 µM,[2],94.5%
C=C(C)C1(CCC(C)=CCCC2=CCC(C3=CC(=O)OC3O)OC2O)CCCC1C (stereo not shown) [luffariellin A],relative increase in ear weight,[1]; [6],0.308±0.065
C=C(C)C1(CCC(C)=CCCC(C=O)=CCC(O)C2=CC(=O)OC2O)CCCC1C (stereo not shown) [luffariellin B],relative increase in ear weight,[1]; [6],0.262±0.053
"CC(=CCCC1=CC(=O)OC1O)CCC=C(C)CCC1=C(C)CCCC1(C)C (stereo not shown) [luffariellolide, 3-(4,8-dimethyl-10-(2,6,6-trimethylcyclohexenyl)-deca,7-dienyl)-4-hydroxybutenolide]",relative increase in ear weight,"[1]; 50 ug, PMA alone 0.929±0.200",0.221±0.068
same,inhibition at 0.25 µM,bee venom PLA2; 0.25 uM,59%
same,inhibition at 0.5 µM,bee venom PLA2; 0.5 uM,59.7%
same,inhibition at 1 µM,bee venom PLA2; 1.0 uM,62.6%
same,inhibition at 42 µM,[3]; 24 hours,63%
same,inhibition at 42 µM,[3]; 48 hours,74%
same,inhibition at 42 µM,[3]; 72 hours,71%
